Laboratory results reported in patent publication US20060252807A1, “Novel ortho-terphenyl inhibitors of p38 kinase and methods of treating inflammatory disorders” (Kalypsys, Inc., priority 2005, published 2006).

These compounds were tested against T1, active p38 alpha enzyme (Upstate Biotechnology) (Homo sapiens, UniProt Q16539) (assay: p38α biochemical assay (ATP turnover, luminescent detection, Cambrex PKlight)). Conditions: p38α biochemical assay, Table 1 Biological Activity.
T1 construct: purchased Upstate Biotechnology
T1 sequence (Q16539 whole entry): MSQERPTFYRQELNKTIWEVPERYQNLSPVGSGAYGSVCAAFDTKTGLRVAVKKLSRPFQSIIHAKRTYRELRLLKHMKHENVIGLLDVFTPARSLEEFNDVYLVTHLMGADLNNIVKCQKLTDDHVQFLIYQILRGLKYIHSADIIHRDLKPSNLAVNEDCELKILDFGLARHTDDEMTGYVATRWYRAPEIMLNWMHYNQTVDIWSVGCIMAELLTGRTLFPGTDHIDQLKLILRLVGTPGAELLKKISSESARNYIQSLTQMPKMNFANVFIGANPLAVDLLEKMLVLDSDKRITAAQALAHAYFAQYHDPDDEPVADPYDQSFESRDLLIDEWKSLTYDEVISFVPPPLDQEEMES
Outline: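 Compounds in DMSO are added to active p38 alpha with MapkapK2 whole protein and ATP at 1.4 uM final. Reactions then run for 2 hours at 30C. A luminescent reagent is added last to quantify total ATP consumed.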
Compound `CC(C)NC(=O)c1csc(-c2oc(CN3CCN(C(=O)c4c5ccccc5cc5ccccc45)CC3)nc2-c2ccc(F)cc2)n1` [Example 540] has an IC50 of over 1 µM.
`COc1ccc(OC)c(C(=O)NCc2onc(-c3ccc(F)cc3)c2-c2nc(C(=O)NC(C)C)cs2)c1` [Example 699] was tested, and the IC50 was over 1 µM.
`CC1=NN(c2ccc(C(=O)N3CCN(Cc4nc(-c5ccc(F)cc5)c(-c5nc(C(=O)NC(C)C)cs5)o4)CC3)cc2)C(=O)C1` [Example 538] showed an IC50 of over 1 µM.
Work on `CC(C)NC(=O)c1csc(-c2oc(CN3CCN(C(=O)C(C)c4ccc(O)cc4)CC3)nc2-c2ccc(F)cc2)n1` (centres unmarked) [Example 420] yielded an IC50 of over 1 µM.
In the case of `CC(C)NC(=O)c1csc(-c2c(-c3ccc(F)cc3)noc2CNC(=O)C2CN(C(=O)OC(C)(C)C)CCN2)n1` (centres unmarked) [Example 790], the IC50 is reported as over 1 µM.
With `COc1cc(C(=O)N2CCN(Cc3nc(-c4ccc(F)cc4)c(-c4nc(C(=O)NC(C)C)cs4)o3)CC2)cc(OC)c1O` [Example 503] the IC50 was at most 1 µM.
`CCCCCCCC(=O)N1CCN(Cc2nc(-c3ccc(F)cc3)c(-c3nc(C(=O)NC(C)C)cs3)o2)CC1` [Example 365] gave an IC50 of over 1 µM.
Compound `CC(C)CC(=O)NCc1nc(-c2ccc(F)cc2)c(-c2nc(C(=O)NC(C)C)cs2)o1` [Example 104] has an IC50 of at most 1 µM.
Compound `CC(C)NC(=O)c1csc(-c2oc(CN3CCN(C(=O)C4CN(C(=O)OC(C)(C)C)CCN4)CC3)nc2-c2ccc(F)cc2)n1` (centres unmarked) [Example 551] has an IC50 of over 1 µM.
`CC(C)NC(=O)c1csc(-c2oc(CNC(=O)c3c(O)ccc4ccccc34)nc2-c2ccc(F)cc2)n1` [Example 243] gave an IC50 of over 1 µM.
With `CCNC(=O)c1csc(-c2c(-c3ccc(F)cc3)n[nH]c2C2CCNCC2)n1` [Example 63, 2-|3-(4-Fluoro-phenyl)-5-piperidin-4-yl-1H-pyrazol-4-yl|-thiazole-4-carboxylic acid ethylamide] the IC50 was at most 1 µM.
Work on `Cc1[nH]nc(-c2ccc(F)cc2)c1-c1nc(C(=O)NCc2ccccn2)cs1` [Example 75, 2-|3-(4-Fluoro-phenyl)-5-methyl-1H-pyrazol-4-yl|-thiazole-4-carboxylic acid (pyridin-2-ylmethyl)-amide] yielded an IC50 of at most 1 µM.
`CC(C)NC(=O)c1csc(-c2oc(CN3CCN(C(=O)c4ccc(C(C)(C)C)cc4)CC3)nc2-c2ccc(F)cc2)n1` [Example 446] gave an IC50 of over 1 µM.
`CC(C)NC(=O)c1csc(-c2c(-c3ccc(F)cc3)noc2CNC(=O)c2cc([N+](=O)[O-])ccc2F)n1` [Example 710] was tested, and the IC50 was over 1 µM.
In the case of `CC(C)NC(=O)c1csc(-c2c(-c3ccc(F)cc3)noc2CNC(=O)c2cnc(O)c(Cl)c2)n1` [Example 673], the IC50 is reported as over 1 µM.
`CC(C)NC(=O)c1csc(-c2oc(CN3CCN(C(=O)c4cc(F)cc(F)c4)CC3)nc2-c2ccc(F)cc2)n1` [Example 397] gave an IC50 of over 1 µM.
`Cc1ccc(C(=O)N2CCN(Cc3nc(-c4ccc(F)cc4)c(-c4nc(C(=O)NC(C)C)cs4)o3)CC2)c(C)c1` [Example 371] showed an IC50 of at most 1 µM.
For `CC(C)NC(=O)c1csc(-c2oc(CN3CCN(C(=O)c4ccc(Cl)c(Br)c4)CC3)nc2-c2ccc(F)cc2)n1` [Example 558], the IC50 was over 1 µM.
For `CC(C)NC(=O)c1csc(-c2c(-c3ccc(F)cc3)noc2CNC(=O)C2CC(O)CN2C(=O)OC(C)(C)C)n1` (centres unmarked) [Example 792], the IC50 was over 1 µM.

Same assay, conditions: p38α kinase; Table 1 Biological Activity
In the case of `Cc1nc(-c2ccc(F)cc2)c(-c2nc(C(=O)NC3CCC(C)CC3)cs2)s1` (centres unmarked) [Example 1744], the IC50 is reported as at most 1 µM.
Compound `CCOC(=O)C1CCCN(C(=O)c2csc(-c3sc(C)nc3-c3ccc(F)cc3)n2)C1` (centres unmarked) [Example 1888] has an IC50 of over 1 µM.
Compound `CCN(C(=O)NCCCN(C)C)C(=O)c1csc(-c2c(-c3ccc(F)cc3)ncn2C2CCNCC2)n1` [Example 2192, 3-(3-Dimethylamino-propyl)-1-ethyl-1-{2-|5-(4-fluoro-phenyl)-3-piperidin-4-yl-3H-imidazol-4-yl|-thiazole-4-carbonyl}-urea] has an IC50 of over 1 µM.
With `Cc1cccc(CCC(=O)N2CCC(c3[nH]nc(-c4ccc(F)cc4)c3-c3nc(C(=O)NC(C)C)cs3)CC2)c1` [Example 887] the IC50 was over 1 µM.
In the case of `COCCOCC(=O)N1CCC(c2[nH]nc(-c3ccc(F)cc3)c2-c2nc(C(=O)NC(C)C)cs2)CC1` [Example 2168, 2-(3-(4-Fluoro-phenyl)-5-{1-|2-(2-methoxy-ethoxy)-acetyl|-piperidin-4-yl}-1H-pyrazol-4-yl)-thiazole-4-carboxylic acid isopropylamide], the IC50 is reported as at most 1 µM.
In the case of `Cc1c(C(=O)N2CCC(c3[nH]nc(-c4ccc(F)cc4)c3-c3nc(C(=O)NC(C)C)cs3)CC2)oc2ccccc12` [Example 916], the IC50 is reported as at most 1 µM.
Compound `Cc1nc(-c2ccc(F)cc2)c(-c2nc(C(=O)NCc3ccc(C(C)(C)C)cc3)cs2)s1` [Example 1810] has an IC50 of over 1 µM.
`CC(C)NC(=O)c1csc(-c2c(-c3ccc(F)cc3)noc2CN2CCC(O)(O)CC2)n1` [Example 1561] showed an IC50 of over 1 µM.
`Cc1nc(-c2ccc(F)cc2)c(-c2nc(C(=O)Nc3ccc(C(F)(F)F)cc3C(F)(F)F)cs2)s1` [Example 2024] showed an IC50 of at most 1 µM.
Work on `Cc1cccc(C(C)C)c1NCc1nc(-c2ccc(F)cc2)c(-c2nc(C(=O)NC(C)C)cs2)o1` [Example 1349] yielded an IC50 of over 1 µM.
Work on `COc1ccc(CCNCc2onc(-c3ccc(F)cc3)c2-c2nc(C(=O)NC(C)C)cs2)cc1` [Example 1475] yielded an IC50 of over 1 µM.
`CC(C)NC(=O)c1csc(-c2c(-c3ccc(F)cc3)noc2CN(CCC#N)Cc2ccccc2)n1` [Example 1381] was tested, and the IC50 was over 1 µM.
Compound `CC(C)NC(=O)c1csc(-c2oc(CNCCC#N)nc2-c2ccc(F)cc2)n1` [Example 1058] has an IC50 of over 1 µM.
`CC1CCC(NC(=O)c2csc(-c3c(-c4ccc(F)cc4)n[nH]c3C3CCNCC3)n2)CC1` (centres unmarked) [Example 2066] was tested, and the IC50 was over 1 µM.
Work on `COc1ccccc1NCc1nc(-c2ccc(F)cc2)c(-c2nc(C(=O)NC(C)C)cs2)o1` [Example 1326] yielded an IC50 of over 1 µM.
`O=C(NCCCN1CCOCC1)c1csc(-c2c(-c3ccc(F)cc3)n[nH]c2C2CCNCC2)n1` [Example 2114] showed an IC50 of over 1 µM.
In the case of `COc1cccc(N2CCN(C(=O)c3csc(-c4sc(C)nc4-c4ccc(F)cc4)n3)CC2)c1` [Example 1922], the IC50 is reported as over 1 µM.
Work on `CC(C)NC(=O)c1csc(-c2oc(CN3CCN(c4ccc(Cl)c(Cl)c4)CC3)nc2-c2ccc(F)cc2)n1` [Example 1298] yielded an IC50 of over 1 µM.
`COc1ccncc1NC(=O)c1csc(-c2sc(C)nc2-c2ccc(F)cc2)n1` [Example 1975] gave an IC50 of at most 1 µM.
`Cc1nc(-c2ccc(F)cc2)c(-c2nc(C(=O)N[C@H](CO)Cc3ccccc3)cs2)s1` [Example 1798] gave an IC50 of at most 1 µM.
`Cc1nc(-c2ccc(F)cc2)c(-c2nc(C(=O)N3CCN(c4ccc(O)cc4)CC3)cs2)s1` [Example 1902] gave an IC50 of over 1 µM.
Work on `CC(C)NC(=O)c1csc(-c2c(-c3ccc(F)cc3)noc2CN2CC(C)OC(C)C2)n1` (centres unmarked) [Example 1538] yielded an IC50 of over 1 µM.
`Cc1ccnc(NCc2nc(-c3ccc(F)cc3)c(-c3nc(C(=O)NC(C)C)cs3)o2)c1` [Example 1313] gave an IC50 of over 1 µM.
`CC(C)NC(=O)c1csc(-c2c(-c3ccc(F)cc3)noc2CBr)n1` [Example 1700] was tested, and the IC50 was over 1 µM.
`CC(C)NC(=O)c1csc(-c2c(-c3ccc(F)cc3)noc2CN2CCSC2)n1` [Example 1521] gave an IC50 of over 1 µM.
Work on `CCOC(=O)N1CCN(Cc2nc(-c3ccc(F)cc3)c(-c3nc(C(=O)NC(C)C)cs3)o2)CC1` [Example 1239] yielded an IC50 of over 1 µM.
Compound `Cc1nc(-c2ccc(F)cc2)c(-c2nc(C(=O)NCCCNC(=O)OC(C)(C)C)cs2)s1` [Example 1817] has an IC50 of at most 1 µM.
`CCC(CO)NCc1nc(-c2ccc(F)cc2)c(-c2nc(C(=O)NC(C)C)cs2)o1` (centres unmarked) [Example 1074] gave an IC50 of at most 1 µM.
